Reference: US6911550B2, “Derivatives of seleno-amino acids with improved bioavailability and method for their preparation” (priority 2003, dated 2005)
Where a name gives a salt, the structure may show the parent alone. Each block holds one compound with its values, some of them ahead of it.

What was measured:
[1] = Stability of a zinc L-selenomethionine solution on storage (HPLC); assay type: physicochemical
Method: FTIR Identification: A 100 μL of the extract was added to 100 mg of FTIR grade potassium bromide powder and mixed well. The mixer was dried in an oven at 75° C. A pellet was formed and the FTIR spectrum of the sample was recorded. […] (w, weak; m, medium; s, strong; vs, very strong). This spectrum is different than that of L-selenomethionine. Of interest is the absence of the weak to medium band at around 2118 cm^−1 characteristic of free amino acids. HPLC Determination: The concentration of zinc L-selenomethionine in the water extract was determined by HPLC. A Shimadzu instrument composed of SCL-10A-VP Controller, Dual LC-10AD-VP Pumps, SIL-10 Ai Auto sampler, and SCD-10AV-VP UV/Visible Detector set at 210 nm. A Discovery Cyano 5μ column (25 cm×4.6 mm) was used at 25° C. The mobile phase was a 0.1% Glacial acetic Acid at 1.00 mL/min. A 50 μL of the standard or sample solution was injected by the auto sampler. A set of 5 standards were prepared to contain 0.1567, 0.3134, 0.4701, 0.6268, and 0.7835 mg/ml of Zinc L-Selenomethionine. A 100 μL of the sample extract was diluted with 900 μL water and used as sample solution. Standards and sample solutions are filtered through a 2μ filter before injection. Standards and sample contained only a single component with a retention time of 3.975 min. Linear regression was used to construct a correlation graph of area under the peak vs. concentration. The concentration of zinc L-selenomethionine in the sample solution was calculated from the correlation graph and found to be 0.3898 mg/mL corresponding to 18.79% Zinc L-Selenomethionine or 5.67% Selenium in the original Premix.
About 2.0 g of a Zinc L-Selenomethionine Premix 5% Se was accurately weighed and transferred into a 100-ml volumetric flask. Water was added to volume. The flask was stoppered and its contents were mixed vigorously. The mixture was allowed to settle and a sample of the supernatant was removed carefully and filtered through a […]. The concentration of zinc L-selenomethionine in the filtrate was determined by HPLC as described in EXAMPLE 2. Analysis was conducted immediately after the solution was prepared and repeated at 30 days and 90 days after storing at an ambient temperature averaging 18° C. and 50% relative humidity.

Solubility in water = assay type: physicochemical
Method: L-Selenomethionine (97.8 mg, 0.5 mmole) was added to water (45 ml) in a 250-ml round bottom flask placed in an ice-bath. The mixture was vigorously stirred by using a magnetic stirrer and a Teflon coated stir-bar. […] Zinc chloride (68.20 mg, 0.5 mmole) was added with continued stirring. A clear solution was immediately formed. The solution was concentrated to dryness at temperature 40° C. under reduced pressure. A hygroscopic colorless solid was formed.

[2] = Tissue selenium concentrations in grow-finish pigs; assay type: in vivo
Source text: (§1) Sixteen pigs with an average weight of 22.9 kg were stratified by weight within sex and randomly assigned to treatments consisting of 0.3 ppm supplemental selenium from either sodium selenite or zinc L-selenomethionine hydrochloride. Pigs were housed in pens and each treatment consisted of four replicate pens each housed one gilt and one […]. Pigs were fed diets that were formulated to meet NRC requirements. Pigs were fed the growing diet for 56 days and then the finishing diet for 33 days. The average pig weight at the end of the growing and finishing phases was 69.6 and 101.2 kg, respectively. Body weights of each pig were determined initially and at the end of the growing and finishing phases. At the end of the study, pigs were slaughtered and samples of liver, muscle, heart and kidney were collected for selenium determination.

glutathione peroxidase [3] = assay: Plasma glutathione peroxidase activity in broilers; assay type: in vivo; conditions: day 49
Method: (§2) One day old male and female birds were used in the study. Male and females were housed separately and randomly assigned to 6 blocks of 8 pens each (4 females and 4 males). The pens contained 50 females or 45 males. Two extra birds were added to each pen at the start of the experiment to allow for mortality and culls. On day 7 the number of birds in each per were adjusted to 50 females and 45 males. Three treatments were assigned to pens using a complete randomized block design. The treatments included: 1) negative control (no additional selenium), 2) sodium selenite, and 3) zinc L-selenomethionine. Birds were housed in concrete floor pens of an environmentally controlled facility. Environmental conditions were similar for all birds in all experimental groups. […] All feed added and removed from pens from day 0 to the end of the study was weighed and recorded. […] The feed intake for each pen was determined by subtracting the amount of feed remaining in the feeder at the end of the study period from the amount of feed weighed into the pen. Average bird weight was calculated on a pen basis. […] Blood was collected in heparinized tubes, plasma was separated and stored at −20° C. until analyzed for selenium and glutathione peroxidase. […] A 100 g sample of the right breast was collected from each bird and stored at −20° C. until analyzed for selenium.

[4] = Plasma and tissue selenium concentrations in selenium-depleted lambs fed selenium sources; assay type: in vivo; conditions: for Relative bioavailability based on tissue selenium concentration, Heart / Relative bioavailability based on tissue selenium concentration, Kidney / Relative bioavailability based on tissue selenium concentration, Liver / Relative bioavailability based on tissue selenium concentration, Muscle: sheep, po, 56 days
Source text: (§3) […] lambs with average weight of 18.5 kg were used. […] Lambs were weaned at approximately two months of age and placed in plastic pens with plastic feeders and stainless steel waterers. For 56 days lambs were fed feedstuff low in selenium. Jugular blood samples were obtained from all lambs on days 0, 28 and 56. At the end of the 56-day depletion period, lambs were stratified by weight and randomly assigned to […]. The treatments consisted of: 1) Control, 2) sodium selenite, 3) L-selenomethionine and 4) zinc L-selenomethionine. The selenium sources were added to provide 0.05 ppm of supplemental selenium for 28 days and then the amount of selenium from each source was increased to 0.1 ppm for additional 28 days. Blood samples were collected via jugular puncture on days 0, 14, 28 and 56. Whole blood and plasma glutathione peroxidase activity in samples obtained on days 0, 14, 28, and 56. Plasma selenium was measured in samples obtained on days 0, 28, and 56. Six lambs from each treatment were slaughtered at the end of the study and samples of liver, kidney, muscle, and heart were obtained for the determination of selenium and glutathione peroxidase activities.

[5] = Performance of grow-finish pigs fed selenium sources; assay type: in vivo; conditions: for Feed Intake / Feed/Gain / Gain: 0.3 ppm supplemental selenium
Source text: as §1

glutathione peroxidase [6] = assay: Glutathione peroxidase activity in selenium-depleted lambs fed selenium sources; assay type: in vivo; conditions: for Whole blood glutathione peroxidase activity, difference between selenium sources / Plasma glutathione peroxidase activity compared with sodium selenite / Glutathione peroxidase activities in kidney, liver, and muscle compared to sodium selenite: lambs; for Whole blood glutathione peroxidase activity, difference between selenium sources: day 14; for Plasma glutathione peroxidase activity compared with sodium selenite: day 28, 0.05 ppm Se; for Glutathione peroxidase activities in kidney, liver, and muscle compared to sodium selenite: supplemented for 56 days; for Relative bioavailability based on glutathione peroxidase activity, Plasma, day 14 / Relative bioavailability based on glutathione peroxidase activity, Plasma, day 28 / Relative bioavailability based on glutathione peroxidase activity, Heart / Relative bioavailability based on glutathione peroxidase activity, Kidney / Relative bioavailability based on glutathione peroxidase activity, Liver / Relative bioavailability based on glutathione peroxidase activity, Muscle: sheep, po; for Relative bioavailability based on glutathione peroxidase activity, Plasma, day 14: 14 days; for Relative bioavailability based on glutathione peroxidase activity, Plasma, day 28: 28 days; for Relative bioavailability based on glutathione peroxidase activity, Heart / Relative bioavailability based on glutathione peroxidase activity, Kidney / Relative bioavailability based on glutathione peroxidase activity, Liver / Relative bioavailability based on glutathione peroxidase activity, Muscle: 56 days
Source text: as §3

[7] = Rumen degradation after ingestion; conditions: in vivo
[8] = Plasma selenium concentration in broilers; conditions: both, chicken (broilers), in vivo, 49 days
Method: as §2

SMILES: C[Se]C[C@H](N)C(=O)O.Cl.[Zn] [zinc Se-methyl-L-selenocysteine complex, Zinc L-Se-Methylselenocysteine Hydrochloride]
- Stability of the water solution on storage [1]: stable solution
- Solubility in water (Solubility in water): readily soluble in water

SMILES: O=[Se](O)O [Sodium Selenite, reference compound]
- Kidney selenium concentrations, sodium selenite versus zinc L-selenomethionine ([2]; pigs): similar
- Glutathione Peroxidase Activity (glutathione peroxidase [3]): 14.0
- Plasma selenium concentration, difference between selenium sources ([4]; lambs, day 28): no difference
- Feed Intake ([5]; Finishing Phase (33 days)): 2.57 kg
- Feed/Gain ([5]; Finishing Phase (33 days)): 2.71
- Gain ([5]; Finishing Phase (33 days)): 0.95 kg/day
- Feed Intake ([5]; Growing Phase (56 days)): 1.74 kg
- Feed/Gain ([5]; Growing Phase (56 days)): 2.15
- Gain ([5]; Growing Phase (56 days)): 0.81 kg/day
- Feed Intake ([5]; Total): 2.05 kg
- Feed/Gain ([5]; Total): 2.38
- Gain ([5]; Total): 0.86 kg/day

- Relative bioavailability based on glutathione peroxidase activity, Plasma, day 14 (glutathione peroxidase [6]; in vivo): 124
- Relative bioavailability based on glutathione peroxidase activity, Plasma, day 28 (glutathione peroxidase [6]; in vivo): 138
- Relative bioavailability based on glutathione peroxidase activity, Heart (glutathione peroxidase [6]; in vivo): 107
- Relative bioavailability based on glutathione peroxidase activity, Kidney (glutathione peroxidase [6]; in vivo): 100
- Relative bioavailability based on glutathione peroxidase activity, Liver (glutathione peroxidase [6]; in vivo): 161
- Relative bioavailability based on glutathione peroxidase activity, Muscle (glutathione peroxidase [6]; in vivo): 186
- Plasma selenium compared with sodium selenite ([4]; in vivo): higher plasma selenium
- Relative bioavailability based on tissue selenium concentration, Heart ([4]; in vivo): 139
- Relative bioavailability based on tissue selenium concentration, Kidney ([4]; in vivo): 59
- Relative bioavailability based on tissue selenium concentration, Liver ([4]; in vivo): 206
- Relative bioavailability based on tissue selenium concentration, Muscle ([4]; in vivo): 133
- Solubility in water (Solubility in water): did not completely go into solution
SMILES: C[Se]CC[C@H](N)C(=O)O [L-Selenomethionine, reference compound]
- Whole blood glutathione peroxidase activity, difference between selenium sources (glutathione peroxidase [6]): no difference
- Plasma glutathione peroxidase activity compared with sodium selenite (glutathione peroxidase [6]): higher
- Glutathione peroxidase activities in kidney, liver, and muscle compared to sodium selenite (glutathione peroxidase [6]): higher activities
- Heart and liver selenium concentrations compared with sodium selenite ([4]; in vivo): higher heart and liver selenium concentrations

SMILES: C[Se]CC[C@@H]1[NH][Zn][O]C1=O [Zn L-Selenomethionine, Zinc L-Selenomethionine Hydrochloride]
- Rumen degradation after ingestion [7]: resistant to rumen degradation
- Stability of the water solution on storage [1]: stable on storage
- Concentration of zinc L-selenomethionine in the solution ([1]; after 30 days at ambient temperature averaging 18° C. and 50% relative humidity): 18.89%
- Concentration of zinc L-selenomethionine in the solution ([1]; after 90 days at ambient temperature averaging 18° C. and 50% relative humidity): 18.78%
- Concentration of zinc L-selenomethionine in the solution ([1]; day of preparation, solution of Premix 5% Se in water): 18.95%
- Change of concentration of zinc L-selenomethionine in the solution ([1]; thirty day storage at ambient temperature and humidity): less than 0.5%
- Kidney selenium concentrations, sodium selenite versus zinc L-selenomethionine ([2]; pig, in vivo): similar
- Selenium concentrations in liver, muscle and heart compared with sodium selenite ([2]; pig, in vivo): higher selenium concentrations
- Bioavailability compared with sodium selenite and L-selenomethionine (glutathione peroxidase [6]; in vivo): more bioavailabe
- Whole blood glutathione peroxidase activity, difference between selenium sources (glutathione peroxidase [6]): no difference
- Plasma glutathione peroxidase activity compared with sodium selenite (glutathione peroxidase [6]): higher
- Glutathione peroxidase activities in kidney, liver, and muscle compared to sodium selenite (glutathione peroxidase [6]): higher activities
- Relative bioavailability based on glutathione peroxidase activity, Plasma, day 14 (glutathione peroxidase [6]; in vivo): 145
- Relative bioavailability based on glutathione peroxidase activity, Plasma, day 28 (glutathione peroxidase [6]; in vivo): 149
- Relative bioavailability based on glutathione peroxidase activity, Heart (glutathione peroxidase [6]; in vivo): 126
- Relative bioavailability based on glutathione peroxidase activity, Kidney (glutathione peroxidase [6]; in vivo): 128
- Relative bioavailability based on glutathione peroxidase activity, Liver (glutathione peroxidase [6]; in vivo): 152
- Relative bioavailability based on glutathione peroxidase activity, Muscle (glutathione peroxidase [6]; in vivo): 200
- Plasma Selenium Concentration [8]: 0.177 ppm
- Glutathione Peroxidase Activity (glutathione peroxidase [3]): 14.9
- Heart and liver selenium concentrations compared with sodium selenite ([4]; in vivo): higher heart and liver selenium concentrations
- Plasma selenium compared with sodium selenite ([4]; lambs, day 56): higher plasma selenium
- Relative bioavailability based on tissue selenium concentration, Heart ([4]; in vivo): 158
- Relative bioavailability based on tissue selenium concentration, Kidney ([4]; in vivo): 74
- Relative bioavailability based on tissue selenium concentration, Liver ([4]; in vivo): 160
- Relative bioavailability based on tissue selenium concentration, Muscle ([4]; in vivo): 85
- Gain/feed ratio compared with sodium selenite [5]: higher
- Feed Intake ([5]; Finishing Phase (33 days)): 2.22 kg
- Feed/Gain ([5]; Finishing Phase (33 days)): 2.31
- Gain ([5]; Finishing Phase (33 days)): 0.96 kg/day
- Feed Intake ([5]; Growing Phase (56 days)): 1.86 kg
- Feed/Gain ([5]; Growing Phase (56 days)): 2.16
- Gain ([5]; Growing Phase (56 days)): 0.86 kg/day
- Feed Intake ([5]; Total): 2.00 kg
- Feed/Gain ([5]; Total): 2.22
- Gain ([5]; Total): 0.90 kg/day
- Feed consumed compared with sodium selenite ([5]; finishing phase): consumed less feed
